Measured values from patent publication US8754079B2, “Cycloalkyl containing thienopyrimidines for pharmaceutical compositions” (Boehringer Ingelheim International GmbH, priority 2010, dated 2014).

Target: T1, MNK2 (Homo sapiens, UniProt Q9HBH9)
T1 construct: the open reading frames of human Mnk1 and Mnk2a were amplified from cDNA; made in house; host or cells: E. coli BL21
Assay: Mnk2a in vitro kinase assay (indirect fluorescence polarization)
Assay type: biochemical
Conditions: pre-activated GST-Mnk2a 2.5 nM, 20 μM ATP, 30 μM substrate peptide
Outline: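 Human GST-Mnk2a was expressed in E. coli and activated in vitro with 150 nM pre-activated ERK2 and 50 μM ATP in HEPES pH 7.4/MgCl2 buffer (45 min, 30 °C). Activity on an eIF4E Ser209-derived 12mer peptide was read by competitive fluorescence polarization with a phospho-specific antibody.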

T1 sequence (Q9HBH9 whole entry): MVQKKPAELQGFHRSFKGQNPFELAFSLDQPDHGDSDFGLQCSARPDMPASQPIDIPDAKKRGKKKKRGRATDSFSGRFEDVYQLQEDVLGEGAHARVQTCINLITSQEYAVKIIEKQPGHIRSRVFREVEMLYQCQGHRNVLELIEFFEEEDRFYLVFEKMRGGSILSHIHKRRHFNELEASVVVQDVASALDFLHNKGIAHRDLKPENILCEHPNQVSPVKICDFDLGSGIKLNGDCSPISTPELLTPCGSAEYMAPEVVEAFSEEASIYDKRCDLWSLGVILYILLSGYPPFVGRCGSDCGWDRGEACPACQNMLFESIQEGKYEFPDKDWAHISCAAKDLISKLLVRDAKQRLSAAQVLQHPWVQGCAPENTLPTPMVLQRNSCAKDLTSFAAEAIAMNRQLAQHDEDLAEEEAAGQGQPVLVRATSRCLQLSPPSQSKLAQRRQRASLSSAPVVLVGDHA

Compound | IC50 [µM]
CCNC(=O)c1sc2ncnc(Nc3ccc(F)cc3O[C@@H]3CCC[C@H](OC)C3)c2c1C (racemic) [Example 109] | 0.024
Cc1c(C(=O)NCc2cn(C)cn2)sc2ncnc(Nc3ccc(F)cc3O[C@H]3CC[C@H](O)CC3)c12 [Example 174] | 0.01
CO[C@@H]1CCC[C@@H](Oc2ncccc2Nc2ncnc3sc(C(=O)NCCN4CCCCC4)c(C)c23)C1 (racemic) [Example 145] | 0.068
COCCN[C@H]1CC[C@@H](Oc2cc(F)ccc2Nc2ncnc3sc(C(N)=O)c(C)c23)CC1 [Example 25, 4-(4-Fluoro-2-(cis-4-(2-methoxyethylamino)cyclohexyloxy)phenylamino)-5-methylthieno[2,3-d]pyrimidine-6-carboxamide] | 0.3
COCCNC(=O)c1sc2ncnc(Nc3ccc(F)cc3O[C@@H]3CCCC[C@H]3O)c2c1C [Example 54, 4-[4-Fluoro-2-((1R,2R)-2-hydroxy-cyclohexyloxy)-phenylamino]-5-methyl-thieno[2,3-d]pyrimidine-6-carboxylic acid (2-methoxy-ethyl)-amide] | 0.062
CO[C@H]1CC[C@H](Oc2cc(F)ccc2Nc2ncnc3sc(C(=O)NCCCO)c(C)c23)CC1 [Example 195] | 0.019
Cc1c(C(=O)NCC#CCN(C)C)sc2ncnc(Nc3ccc(F)cc3O[C@H]3CC[C@H](O)CC3)c12 [Example 165] | 0.008
CO[C@H]1CC[C@H](Oc2cc(F)ccc2Nc2ncnc3sc(C(=O)NCC4CN(C)CCO4)c(C)c23)CC1 (stereo partly drawn) [Example 199] | 0.015
CC(=O)N[C@H]1C[C@H](Oc2cc(F)ccc2Nc2ncnc3sc(C(=O)O)c(C)c23)C1 [Example 35.2, 4-[2-(trans-3-Acetylamino-cyclobutoxy)-4-fluoro-phenylamino]-5-methyl-thieno[2,3-d]pyrimidine-6-carboxylic acid] | 0.023
CO[C@H]1CC[C@H](Oc2cc(F)ccc2Nc2ncnc3sc(C(=O)NCCN4CCCCC4)c(C)c23)CC1 [Example 190] | 0.03
CO[C@@H]1CCCC[C@H]1Oc1cc(F)ccc1Nc1ncnc2sc(C(=O)N[C@@H]3CCC[C@H]3O)c(C)c12 [Example 251] | 0.02
CC(=O)N[C@H]1CC[C@H](Oc2cc(F)ccc2Nc2ncnc3sc(C(N)=O)c(C)c23)CC1 [Example 5, 4-(2-(trans-4-acetamidocyclohexyloxy)-4-fluorophenylamino)-5-methylthieno[2,3-d]pyrimidine-6-carboxamide] | 0.003
Cc1c(C(N)=O)sc2ncnc(Nc3ccc(F)cc3OC3CCC(F)(F)CC3)c12 [Example 33, 4-[2-(4,4-Difluoro-cyclohexyloxy)-4-fluoro-phenylamino]-5-methyl-thieno[2,3-d]pyrimidine-6-carboxylic acid amide] | 0.007
Cc1c(C(=O)NCCCN(C)C)sc2ncnc(Nc3ccc(F)cc3O[C@H]3CC[C@H](O)CC3)c12 [Example 152, 4-[4-Fluoro-2-(trans-4-hydroxy-cyclohexyloxy)-phenylamino]-5-methyl-thieno[2,3-d]pyrimidine-6-carboxylic acid (3-dimethylamino-propyl)-amide] | 0.011
CCNC(=O)c1sc2ncnc(Nc3ccc(F)cc3O[C@H]3C[C@H](NC(C)=O)C3)c2c1C [Example 37] | 0.069
Cc1c(C(=O)NC2CCN(C)CC2)sc2ncnc(Nc3ccc(F)cc3OC3CCCCC3O)c12 (single isomer, unassigned) [Example 265] | 0.054
CO[C@H]1CCC[C@@H](Oc2cc(F)ccc2Nc2ncnc3sc(C(=O)NCCCN4CCOCC4)c(C)c23)C1 (racemic) [Example 97] | 0.024
Cc1c(C(=O)NCCO)sc2ncnc(Nc3cccnc3O[C@H]3CC[C@H](O)CC3)c12 [Example 266, 4-[2-(trans-4-hydroxy-cyclohexyloxy)-pyridine-3-ylamino]-5-methyl-thieno[2,3-d]pyrimidine-6-carboxylic acid (2-hydroxy-ethyl)-amide] | 0.015
CO[C@@H]1CCC[C@@H](Oc2ncccc2Nc2ncnc3sc(C(=O)N[C@H]4CC[C@H](O)CC4)c(C)c23)C1 (racemic) [Example 142] | 0.125
Cc1c(C(N)=O)sc2ncnc(Nc3ccc(F)cc3O[C@@H]3CCCC[C@@H]3O)c12 (racemic) [Example 56, Racemic 4-[4-Fluoro-2-((cis)-2-hydroxy-cyclohexyloxy)-phenylamino]-5-methyl-thieno[2,3-d]pyrimidine-6-carboxylic acid amide] | 0.033
CC(=O)N[C@H]1CC[C@H](Oc2cc(F)ccc2Nc2ncnc3sc(C(=O)N[C@@H]4C[C@H]4N)c(C)c23)C1 [Example 238] | 0.031

Further lines, results first:

IC50 [µM] | Compound
0.139 | COC(=O)c1sc2ncnc(Nc3ccc(F)cc3O[C@@H]3CCCC[C@H]3OC)c2c1C [Example 247, 4-[4-Fluoro-2-((1R,2R)-2-methoxy-cyclohexyloxy)-phenylamino]-5-methyl-thieno[2,3-d]pyrimidine-6-carboxylic acid methyl ester]
0.006 | Cc1c(C(=O)NCC#CCN)sc2ncnc(Nc3ccc(F)cc3O[C@H]3CC[C@H](O)CC3)c12 [Example 160]
0.046 | CO[C@H]1CC[C@@H](Oc2cc(F)ccc2Nc2ncnc3sc(C(=O)NCCCN(C)C)c(C)c23)CC1 [Example 202, 4-[4-Fluoro-2-(cis-4-methoxy-cyclohexyloxy)-phenylamino]-5-methyl-thieno[2,3-d]pyrimidine-6-carboxylic acid (3-dimethylamino-propyl)-amide]
0.083 | CO[C@@H]1CCC[C@@H](Oc2ncccc2Nc2ncnc3sc(C(=O)NCCCO)c(C)c23)C1 (racemic) [Example 147]
0.017 | Cc1c(C(=O)NCCCCO)sc2ncnc(Nc3ccc(F)cc3O[C@H]3CC[C@H](O)CC3)c12 [Example 161]
0.016 | CO[C@H]1CC[C@H](Oc2cc(F)ccc2Nc2ncnc3sc(C(=O)NCC4CNCCO4)c(C)c23)CC1 (stereo partly drawn) [Example 180]
1.6 | CC(=O)N(C)[C@@H]1CCCC[C@H]1Oc1cc(F)ccc1Nc1ncnc2sc(C(N)=O)c(C)c12 (racemic) [Example 14, Racemic 4-(4-fluoro-2-(trans-2-(N-methylacetamido)cyclohexyloxy)phenylamino)-5-methylthieno[2,3-d]pyrimidine-6-carboxamide]
0.044 | CO[C@H]1CCC[C@@H](Oc2ncccc2Nc2ncnc3sc(C(=O)NCC(C)O)c(C)c23)C1 (relative stereo) [Example 125]
0.001 | CO[C@H]1CC[C@H](Oc2cc(F)ccc2Nc2ncnc3sc(C(=O)NCCCn4ccnc4)c(C)c23)CC1 [Example 197]
0.046 | Cc1c(C(=O)NC2CCN(C)CC2)sc2ncnc(Nc3ccc(F)cc3O[C@H]3C[C@@H]4OCO[C@@H]4C3)c12 [Example 292]
0.016 | CO[C@H]1CC[C@H](Oc2cc(F)ccc2Nc2ncnc3sc(C(=O)NCC#CCN)c(C)c23)CC1 [Example 178]
0.013 | Cc1c(C(N)=O)sc2ncnc(Nc3ccc(F)cc3O[C@H]3CC[C@H](NC4CCN(C)CC4)CC3)c12 [Example 16, 4-(4-Fluoro-2-(trans-4-(1-methylpiperidin-4-ylamino)cyclohexyloxy)phenylamino)-5-methylthieno[2,3-d]pyrimidine-6-carboxamide]
0.026 | Cc1c(C(=O)NCCCN2CCOCC2)sc2ncnc(Nc3ccc(F)cc3O[C@@H]3CCC[C@@H](O)C3)c12 (racemic) [Example 66]
0.032 | CC(=O)N[C@H]1CC[C@H](Oc2cc(F)ccc2Nc2ncnc3sc(C(=O)NC4CCN(C)CC4)c(C)c23)C1 [Example 234]
0.036 | CN[C@H]1CCC[C@H](Oc2cc(F)ccc2Nc2ncnc3sc(C(N)=O)c(C)c23)C1 (relative stereo) [Example 18, 4-(4-Fluoro-2-(trans-3-(N-methylamino)cyclohexyloxy)phenylamino)-5-methylthieno[2,3-d]pyrimidine-6-carboxamide]
0.011 | Cc1c(C(N)=O)sc2ncnc(Nc3ccc(F)cc3O[C@H]3CC[C@@H](O)CC3)c12 [Example 150]
0.011 | Cc1c(C(=O)O)sc2ncnc(Nc3cccnc3O[C@H]3CC[C@H](N)CC3)c12 [Example 282, 4-[2-(4-Amino-cyclohexyloxy)-pyridin-3-ylamino]-5-methyl-thieno[2,3-d]pyrimidine-6-carboxylic acid]
0.059 | CO[C@H]1CCCC[C@H]1Oc1cc(F)ccc1Nc1ncnc2sc(C(N)=O)c(C)c12 (racemic) [Example 55, Racemic 4-[4-Fluoro-2-(cis-2-methoxy-cyclohexyloxy)-phenylamino]-5-methyl-thieno[2,3-d]pyrimidine-6-carboxylic acid amide]
0.02 | CO[C@H]1CC[C@H](Oc2cc(F)ccc2Nc2ncnc3sc(C(=O)NCc4cn(C)cn4)c(C)c23)CC1 [Example 186]
0.086 | CO[C@@H]1CCC[C@@H](Oc2ncccc2Nc2ncnc3sc(C(=O)NCCCCO)c(C)c23)C1 (racemic) [Example 134]
0.018 | Cc1c(C(=O)NCC2CNCCO2)sc2ncnc(Nc3ccc(F)cc3OC3CCCC(O)C3)c12 (mixture of isomers) [Example 67]
0.019 | COC1CCCC(Oc2cc(F)ccc2Nc2ncnc3sc(C(=O)NCCCN(C)C)c(C)c23)C1 (stereo not drawn) [Example 108]
0.015 | CC(=O)N[C@H]1CC[C@H](Oc2cc(F)ccc2Nc2ncnc3sc(C(=O)NCCCN4CCCC4)c(C)c23)C1 [Example 239]
0.043 | CO[C@H]1CC[C@H](Oc2cc(F)ccc2Nc2ncnc3sc(C(=O)NCCN(C)C)c(C)c23)CC1 [Example 193]
0.019 | Cc1c(C(=O)NCCO)sc2ncnc(Nc3cccnc3O[C@H]3CC[C@H](N)CC3)c12 [Example 288]
0.024 | CO[C@H]1CCC[C@@H](Oc2cc(F)ccc2Nc2ncnc3sc(C(=O)NCCCO)c(C)c23)C1 (racemic) [Example 105]

System: Mnk2 (Mnk2a or Mnk2b) or Mnk1
Assay: not given
Conditions: addition to cell culture cells transfected with Mnk2 (Mnk2a or Mnk2b) or Mnk1; cited from earlier work

Compound | reduction of phosphorylated eIF4E
Nc1ncnc2n[nH]c(Nc3ccc(F)cc3)c12 [CGP57380] | strong reduction
